In patent US10167315B2, “Peptoids and methods for treating Alzheimer's disease” (THE BOARD OF TRUSTEES OF THE UNIVERSITY OF ARKANSAS, priority 2015, dated 2019):
Where a SMILES comes first, the peptide text is derived from it. [ ]: non-standard residue; d: D form. N(1S-Me-propyl)Gly = CC[C@H](C)NCC(=O)O; Nspe = C[C@H](NCC(=O)O)c1ccccc1; Nphe = O=C(O)CNCc1ccccc1; NPrGly = CCCNCC(=O)O; Nlys = NCCCCNCC(=O)O

Assays:
Aβ40 [1] = biological target: T1, Aβ40 (Homo sapiens, UniProt P05067); experiment: Aβ40 aggregation assay monitored via ThT fluorescence; assay type: biochemical; conditions: 100 μM peptoid, 20 μM Aβ40 monomer; mean±SEM, n=7
T1 construct: purchased Anaspec, Inc
Experimental: (§1) Aβ40 was dissolved in cold 1,1,1,3,3-hexafluoro-2-propanol (HFIP) to create a 1 mM solution and was incubated on ice for 60 min. After incubation, the solution was aliquoted into individual silicon-coated vials, and HFIP was allowed to evaporate overnight at room temperature, resulting in a thin protein film that was stored with desiccant at −80° C. until use. Prior to experimentation, protein films were rehydrated with 5 mM NaOH on ice for 5 min, and then 40 mM Tris-HCl (pH 8.0) was added for 10 min on ice for a final concentration of 250 μM NaOH.
(§2) Aggregation assays were performed with 20 μM rehydrated Aβ40 in 40 mM Tris-HCl (pH 8.0) and 150 mM NaCl. Peptoids were dissolved in DMSO and added at 100 μM such that the final DMSO concentration was 5% (v/v). Assays were performed at 25° C. with agitation on an orbital shaker at 800 rpm.
To monitor aggregation using ThT, an aliquot of the aggregation reaction was taken at varying time points and combined with 12.5 μM ThT at a 5:1 molar ratio (ThT:Aβ). Samples were mixed for 8 s and then scanned with a Shimazdu RF-150 mini fluorometer (excitation at 440±10 nm and emission at 490±10 nm) using an average scan time of 4 s. ThT fluorescence with background (ThT alone) subtraction was normalized to the fluorescence detected at equilibrium within the control reaction, and results were plotted against time. […] The fold-change in the lag time was calculated as the ratio of the lag time observed in the presence of peptoid to that of the control. The equilibrium plateau was determined for both the control and peptoid reactions, and percent inhibition was calculated as the percentage decrease of the equilibrium plateau observed in the presence of peptoid relative to the control.

Aβ40 [2] = biological target: T1, Aβ40; experiment: Aβ40 aggregation assay assessed by dot blot analysis with fibril specific OC antibody; assay type: biochemical; conditions: 100 μM peptoid, 20 μM Aβ40 monomer; for lag time extension (dot blot, OC antibody), FIG. 3 legend: mean±SEM, n=3
Experimental: as §1, §2
In parallel with ThT fluorescence, aggregation assays were also assessed by dot blot analysis. […] Membranes were washed three times with TBS-T and incubated with Aβ fibril specific OC antibody (1:5000 dilution) for 1 h at room temperature with gentle agitation. Membranes were again washed three times with TBS-T. Protein detection for bound OC antibody was performed by binding alkaline phosphatase-conjugated anti-rabbit IgG (1:3000 dilution) for 1 h at room temperature with gentle agitation. Dot blots were developed using nitro blue tetrazolium and 5-bromo-4-chloro-3-indolyl phosphate in TBS-T/MgCl2 until […]. The developing reaction was halted using a 10% acetic acid solution. Dot blots were immediately imaged using a Canon CanoScan 9000F (Tokyo, Japan). Images were analyzed with ImageJ software using the gel lane analysis tool. Dot density was normalized to the density detected at equilibrium for the control and plotted against time. The fold-change in lag time and percent inhibition were assessed as described for ThT fluorescence.

Aβ40 [3] = biological target: T1, Aβ40; experiment: Transmission electron microscopy of Aβ40 aggregates; conditions: 100 μM peptoid, 20 μM Aβ40, 255 min; for overall number of Aβ40 aggregates (TEM): versus control
Experimental: Aggregation assays were performed with 20 μM rehydrated Aβ40 in 40 mM Tris-HCl (pH 8.0) and 150 mM NaCl. Peptoids were dissolved in DMSO and added at 100 μM such that the final DMSO concentration was 5% (v/v). Assays were performed at 25° C. with agitation on an orbital shaker at 800 rpm. Monomer aggregation reactions were gridded for transmission electron microscopy (TEM) at 255 min, a time by which the control reaction had reached plateau as observed by ThT fluorescence. A 3 μL sample was placed onto a wax substrate, and a 300 square mesh formvar-carbon supported nickel grid (Electron Microscopy Sciences, Hatfield, Pa.) was inverted onto the sample. After 1 min, the sample was wicked away from the bottom side of the grid using a piece of filter paper. A 3 μL sample of 2% uranyl acetate was then placed onto the wax substrate, and the grid was inverted onto the solution for a period of 45 s. Excess stain was wicked away with a piece of filter paper, and the grids were allowed to dry for a period of 24 h. Imaging was performed using a JEOL-1011 transmission electron microscope (JEOL Ltd., Tokyo, Japan) with an accelerating voltage of 110 kV. Blinded observation of samples with random selection of grid areas was implemented to reduce bias during imaging. Images are the representative of 3 repeated experiments and 3 random sections of the grids.

Aβ40 [4] = biological target: T1, Aβ40; experiment: Nile Red spectroscopy, surface hydrophobicity of Aβ40 aggregates; conditions: 100 μM peptoid, 20 μM Aβ40, equilibrium plateau; n=3-4
Experimental: as §2
To monitor peptoid-induced changes in aggregate surface hydrophobicity, which are indicative of changes in aggregate conformation, an aliquot of the aggregation reaction was taken from the equilibrium plateau and combined with 200 μM Nile Red (Life Technologies, Carlsbad, Calif.) at a 10:1 molar ratio (Nile Red:Aβ). Samples were scanned using a PerkinElmer LS 45 Luminescence Spectrometer (excitation at 550 nm and emission from 580-700 nm), and the integrated area under the curve (IAUC) was calculated from 580-700 nm. The IAUC was blank (Nile Red, peptoid) subtracted and normalized to Nile Red measurements performed for the control reaction.

Aβ40 [5] = biological target: T1, Aβ40; conditions: cited from earlier work
Aβ40 [6] = biological target: T1, Aβ40; conditions: different Aβ lot; cited from earlier work

T1 sequence (P05067 672-711 limits assumed): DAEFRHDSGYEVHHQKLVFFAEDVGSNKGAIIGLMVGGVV

| Structure (SMILES) | Inhibition of Aβ40 aggregation (reduction in the ThT fluorescence plateau at equilibrium) (Aβ40 [1]) | decrease in fibrillar aggregates at equilibrium (dot blot, OC antibody) (Aβ40 [2]) | fold change in lag time versus the control (dot blot, OC antibody) (Aβ40 [2]) | lag time extension (dot blot, OC antibody), FIG. 3 legend (Aβ40 [2]) | morphology of Aβ40 aggregates formed in the presence of peptoid (TEM) (Aβ40 [3]) | overall number of Aβ40 aggregates (TEM) (Aβ40 [3]) | surface hydrophobicity of Aβ40 aggregates (Nile Red fluorescence IAUC 580-700 nm normalized to control) (Aβ40 [4]) | Inhibition of Aβ40 aggregation (ThT), previously reported value (Aβ40 [5]) | decrease in fibrillar aggregates (dot blot), previously published data (Aβ40 [6]) | fold change in lag time compared to the control (dot blot), previously published data (Aβ40 [6]) |
| --- | --- | --- | --- | --- | --- | --- | --- | --- | --- | --- |
| CCCN(CC(=O)N(CCC)CC(=O)N(CC(=O)N(CC(=O)N(CCC)CC(=O)N(CC(=O)N(CC(N)=O)Cc1ccccc1)Cc1ccccc1)Cc1ccccc1)Cc1ccccc1)C(=O)CNCCCCN [JPT1a] (H-[Nlys][NPrGly][NPrGly][Nphe][Nphe][NPrGly][Nphe][Nphe]-NH2) | 85.6±4.8% | 72.6±4.5% | < 0.50 fold | < 0.42 times that of the control | circular, bird nest-like morphology | reduction in the overall number of aggregates | significantly increased surface hydrophobicity | – | – | – |
| CC[C@H](C)NCC(=O)N(CC(=O)N(CC(=O)N(CC(=O)N(CC(=O)N(CCCCN)CC(=O)N(CC(=O)N(CC(N)=O)[C@@H](C)c1ccccc1)[C@@H](C)CC)[C@@H](C)CC)[C@@H](C)c1ccccc1)[C@@H](C)c1ccccc1)[C@@H](C)c1ccccc1 [JPT1s] (H-[N(1S-Me-propyl)Gly][Nspe][Nspe][Nspe][N(1S-Me-propyl)Gly][Nlys][N(1S-Me-propyl)Gly][Nspe]-NH2) | 76.9±4.8% | 50.5±9.0% | 2.2±0.4 fold | 2.22±0.28 times that of the control | – | reduction in the overall number of aggregates | no significant change in Nile Red fluorescence | – | – | – |
| CC[C@H](C)N(CC(=O)N(CC(=O)N(CC(=O)N(CC(=O)N(CC(=O)N(CC(=O)N(CC(N)=O)[C@@H](C)c1ccccc1)[C@@H](C)c1ccccc1)[C@@H](C)CC)[C@@H](C)c1ccccc1)[C@@H](C)c1ccccc1)[C@@H](C)CC)C(=O)CNCCCCN [JPT1] (H-[Nlys][N(1S-Me-propyl)Gly][N(1S-Me-propyl)Gly][Nspe][Nspe][N(1S-Me-propyl)Gly][Nspe][Nspe]-NH2) | 83.1±4.8% | 46.0±11.4% | 2.7±0.8 fold | 2.67±0.83 times that of the control | small aggregates with no extensive branching | reduction in the overall number of aggregates | no significant change in Nile Red fluorescence | 81.2±4.4% | 63.7±9.2% | < 0.31 fold |
